# Assay results from patent publication US20050065099A1, “Treatment of mitochondrial diseases” (priority 2003, published 2005).
# Test system: FRDA fibroblasts
# Assay: FRDA fibroblast assay for protection from oxidative stress
# Type: cell-based
# Settings: Homo sapiens, 24 h preincubation, 1 mM BSO, compared to untreated FRDA fibroblasts, read-out: EC50 for reduction of cell death in FRDA fibroblasts
# From the text: A cellular assay using FRDA-patient derived fibroblasts (as described by Jauslin, M L et al, Human Molecular Genetics 11; 3055-3063 (2002)); is used to determine the cell protecting effect of the test compounds by analyzing survival of dermal fibroblasts taken from FRDA patients and unaffected normal donors under conditions of partial GSH depletion. Exposure of FRDA fibroblasts to BSO (L-buthionine (S,R)-sulfoximine) under conditions of restricted selenium causes depletion of cellular glutathione (GSH) and severe plasma membrane damage leading to cell death. Preincubation with the test compounds before the addition of BSO is used to determine if they can protect FRDA cells from BSO-mediated cell death.
# Primary fibroblasts were derived from donors with a molecular diagnosis of FRDA and control donors with no mitochondrial disease. Lines F2, C2 and C3 were obtained from Coriell Cell Repositories (Camden, N.J., USA; catalog #'s GM04078, GM 08402 and GM08399, respectively). All cell types were diagnosed at the molecular level for intronic GAA triplet repeat length in the trataxin gene using a PCR-based method, according to methods known in the art. […] The cells were seeded in microtiter plates at a density of 4000 cells per 100 μl in growth medium consisting of 25% (v/v) M199 EBS and 64% (v/v) MEM EBS without phenol red (Bioconcept, Allschwil, Switzerland) supplemented with 10% (v/v) fetal calf serum (PAA Laboratories, Linz, Austria), 100 U/ml penicillin, 100 μg/ml streptomycin (PAA Laboratories, Linz, Austria), 10 μg/ml insulin (Sigma, Buchs, Switzerland), 10 μg/ml EGF (Sigma, Buchs, Switzerland), 10 μg/ml bFGF (PreproTech, Rocky Hill, N.J., USA) and 2 mM glutamine (Sigma, Buchs, Switzerland). The cells were incubated in the presence of the various test compounds for 24 h before addition of 1 mM BSO (L-buthionine (S,R)-sulfoximine).
# Cell viability was measured after the first signs of toxicity appeared in the BSO-treated controls (typically after 16-48 h). The cells were stained for 60 min at room temperature in PBS with 1.2 μm calceinAM and 4 μm ethidium homodimer (Live/Dead assay, Molecular Probes, Eugene, Oreg., USA). Fluorescence intensity was measured with a Gemini Spectramax XS spectrofluorimeter (Molecular Devices, Sunnyvale, Calif., USA) using excitation and emission wavelengths of 485 and 525 nm, respectively.
row,SMILES,EC50 [µM]
1,"Cc1c(O)cc2c(c1C)OC(C)(CCC(=O)NC(CCC(=O)NC(CS)C(=O)NCC(=O)O)C(=O)O)CC2 (stereo not shown) [4-[1-(Carboxymethyl-carbamoyl)-2-mercapto-ethylcarbamoyl]-2-[3-(6-hydroxy-2,7,8-trimethyl-chroman-2-yl)-propionylamino]-butyric acid]",0.01 to 6
2,"Cc1c(O)cc2c(c1C)OC(C)(CCCC1SC(=O)NC1=O)CC2 (stereo not shown) [5-[3-(6-Hydroxy-2,7,8-trimethyl-chroman-2-yl)-propyl]-thiazolidine-2,4-dione]",0.01 to 6
3,"CC(C)=CCc1c(O)c(C)c(C)c2c1CCC(C)(CCCl)O2 (stereo not shown) [2-(2-Chloro-ethyl)-2,7,8-trimethyl-5-(3-methyl-but-2-enyl)-chroman-6-ol]",0.01 to 6
4,"Cc1c(C)c2c(c(CCC(C)C)c1O)CCC(C)(C)O2 [2,2,7,8-Tetramethyl-5-(3-methyl-butyl)-chroman-6-ol]",0.01 to 6
5,"Cc1cc(O)cc2c1OC(C)(CCCC(C)CCCC(C)CCCC(C)C)CC2 (stereo not shown) [Delta tocopherol, 2,8-dimethyl-2-(4,8,12-trimethyl-tridecyl)-chroman-6-ol]",0.01 to 6
6,"Cc1c(C)c2c(c(CSCC(NC(=O)CCC(N)C(=O)O)C(=O)NCC(=O)O)c1O)CCC(C)(CCCC(C)CCCC(C)CCCC(C)C)O2 (stereo not shown) [2-Amino-4-{1-(carboxymethyl-carbamoyl)-2-[6-hydroxy-2,7,8-trimethyl-2-(4,8,12-trimethyl-tridecyl)-chroman-5-ylmethylsulfanyl]-ethylcarbamoyl}-butyric acid]",0.01 to 6
7,"CC(C)=CCCC(C)=CCCC(C)=CCCC1(C)CCc2cc(O)c(C)c(C)c2O1 (stereo not shown) [Gamma-tocotrienol, 2,7,8-trimethyl-2-(4,8,12-trimethyl-trideca-3,7,11-trienyl)-chroman-6-ol]",0.01 to 6
8,"Cc1c(O)cc2c(c1C)OC(C)(CCCl)CC2 (stereo not shown) [2-(2-chloro-ethyl)-2,7,8-trimethyl-chroman-6-ol]",0.01 to 6
9,"Cc1c(O)cc2c(c1C)OC(C)(CCCC(C)CCCC(C)CCCC(C)C)CC2 (stereo not shown) [Gamma-tocopherol, 2,7,8-trimethyl-2-(4,8,12-trimethyltridecyl)-6-chromanol]",0.01 to 6
10,"CC(C)=CCCC(C)=CCCC(C)=CCCC1(C)CCc2cc(O)cc(C)c2O1 (stereo not shown) [Delta tocotrienol, 2,8-dimethyl-2-(4,8,12-trimethyl-trideca-3,7,11-trienyl)-chroman-6-ol]",0.01 to 6

# Test system: dopaminergic neuronal cell line
# Assay: High glutamate-induced oxidative stress assay (HGOS)
# Type: cell-based
# Settings: Mus musculus; 30 mM glutamate, 16 hrs, Cell Tracker Green; read-out: EC50 for protection against HGOS cell injury and cell death
# From the text: Protection against redox stress can be further evaluated in cell culture using high glutamate induced oxidative stress (HGOS) in mouse dopaminergic cell lines. The cytotoxic effect of glutamate is not due to excitotoxicity, as this cell line is devoid of inotropic glutamate receptors. Rather, the glutamate-induced toxicity of dopaminergic cells is associated with an inhibition of cystine transport which subsequently leads to depletion of intracellular glutathione (GSH) levels (Murphy T. H., et al. Neuron 2, 1547-1558, 1989), activation of neuronal 12-lipoxygenase (Li, Y. et al., Neuron 19,453-463, 1997), increased ROS production (Tan S. et al., J. Cell Biol. 141, 1423-1432, 1998) and elevated intracellular Ca^2+ (Li, Y. et al., see supra). Some molecules were measured for their ability to protect such cells against glutamate-induced stress and the assay is detailed in Examples.
# This procedure was used to induce high glutamate-induced oxidative stress (HGOS) in a dopaminergic neuronal cell line. Using this assay the potency and efficacy of test articles against HGOS neuronal cell injury and cell death was established in a high throughput manner.
# The cells were seeded into 96-well plates at a density of 2000 per well and left to grow for 72 hours in a 33° C. incubator with 5% CO2 in air atmosphere. The passage number of the cells for each assay experiment were no later than p11 in order to minimize experimental variation.
# All compounds were dissolved in DMEM-No Glu containing 1 mM glucose, 30 mM glutamate and 1× Pen/Strep. DMEM-No Glu with 1 mM glucose and 1×P/S was used as the negative control, DMEM-No Glucose with 1 mM glucose, […] was used as a positive control and 100 μM Glutathione was added to the positive control as a standard. All of the procedures for this involving the making and dilution of compounds were performed using aseptic conditions and with minimal light.
# The plates were removed from the incubator and examined under the microscope for morphological appearance and density. Using an aseptic technique and an 8-channel aspirator the media was carefully removed from the cells and replaced with 200 μl of 1×HBSS. This was done as quickly as possible to prevent the cells drying out. The plates were then placed in the humidified 37° C. incubators of the Biomek 2000 Side Loader. Four plates were washed at a time so as to minimize the time that the cells were sitting in 1×HBSS prior to addition of the compound test solution.
# The Beckman Biomek workstations were used to load the compounds and controls from the mother plates onto the cell plates that were prewashed with HBSS under sterile conditions. The plates were incubated in the upper HTS incubator at 37° C. in 5% CO2 for exactly 16 hrs. The following day, using the Beckman Biomek workstations, the plates were removed from the incubator. Using Cell Tracker Addition, the compounds were removed from the plates, washed once with […] of pre-warmed 1×HBSS and then 100 μL of 5 μM Cell Tracker Green was added to each well. The plates were incubated at 37° C. for 30 min to allow the dye to enter the cell and be cleaved by the esterases. After washing the cells twice with prewarmed 1×HBSS, the plates were read with the 485 excitation; 538 emission filter pair on a Fluoroskan.
row,SMILES,EC50 [µM]
1,"Cc1c(O)cc2c(c1C)OC(C)(C)CC2 [2,2,7,8-Tetramethyl-chroman-6-ol]",≤ 5
2,"Cc1c(C)c2c(c(CCO)c1O)CCC(C)(C)O2 [5-(2-Hydroxy-ethyl)-2,2,7,8-tetramethyl-chroman-6-ol]",≤ 5
3,"Cc1c(C)c2c(c(C)c1O)CCC(C)(COCC(=O)Nc1cccc(C(F)(F)F)c1)O2 (stereo not shown) [2-(6-Hydroxy-2,5,7,8-tetramethyl-chroman-2-ylmethoxy)-N-(3-trifluoromethyl-phenyl)-acetamide]",≤ 5
4,"Cc1c(C)c2c(c(C)c1O)CCC(C)(C(=N)N)O2 (stereo not shown) [6-Hydroxy-2,5,7,8-tetramethyl-chroman-2-carboxamidine]",≤ 5
5,"Cc1c(O)c(C)c([N+](=O)[O-])c2c1CCC(C)(C)O2 [2,2,5,7-Tetramethyl-8-nitro-chroman-6-ol]",≤ 5
6,"Cc1c(O)cc2c(c1C)OC(C)(CCCC1SC(=O)NC1=O)CC2 (stereo not shown) [5-[3-(6-Hydroxy-2,7,8-trimethyl-chroman-2-yl)-propyl]-thiazolidine-2,4-dione]",≤ 5
7,"Cc1c(O)cc2c(c1C)OC1(C)CCCC2C1 (stereo not shown) [5,6,9-Trimethyl-8-oxa-tricyclo[7.3.1.0^2,7]trideca-2,4,6-trien-4-ol]",≤ 5
8,"C#CC1(C)CCc2c(C)c(O)c(C)c(C)c2O1 (stereo not shown) [2-Ethynyl-2,5,7,8-tetramethyl-chroman-6-ol]",≤ 5
9,"Cc1c(O)c(C)c2c(c1C=O)OC(C)(C)CC2 [6-Hydroxy-2,2,5,7-tetramethyl-chroman-8-carbaldehyde]",≤ 5
10,"Cc1c(C)c2c(c(C)c1O)CCC(C)(CO)O2 (stereo not shown) [2-Hydroxymethyl-2,5,7,8-tetramethyl-chroman-6-ol]",≤ 5
11,"CC(C)=CCc1c(O)c(C)c(C)c2c1CCC(C)(CCCl)O2 (stereo not shown) [2-(2-Chloro-ethyl)-2,7,8-trimethyl-5-(3-methyl-but-2-enyl)-chroman-6-ol]",≤ 5
12,"Cc1c(C)c2c(c(CCC(C)C)c1O)CCC(C)(C)O2 [2,2,7,8-Tetramethyl-5-(3-methyl-butyl)-chroman-6-ol]",≤ 5
13,"Cc1c(C)c2c(c(CC(CO)CO)c1O)CCC(C)(C)O2 [2-(6-Hydroxy-2,2,7,8-tetramethyl-chroman-5-ylmethyl)-propane-1,3-diol]",≤ 5
14,"Cc1c(C)c2c(c(C)c1O)CCC(C)(C(=O)N1CCNCC1)O2 (stereo not shown) [(6-Hydroxy-2,5,7,8-tetramethyl-chroman-2-yl)-piperazin-1-yl-methanone]",≤ 5
15,"Cc1c(C)c2c(c(Br)c1O)CCC(C)(CCC(=O)O)O2 (stereo not shown) [3-(5-Bromo-6-hydroxy-2,7,8-trimethyl-chroman-2-yl)-propionic acid]",≤ 5
16,"Cc1c(C)c2c(c(CO)c1O)CCC(C)(C)O2 [5-Hydroxymethyl-2,2,7,8-tetramethyl-chroman-6-ol]",≤ 5
17,"COc1cccc2c(O)cc3c(c12)OC(C)(C)CC3 [10-Methoxy-2,2-dimethyl-3,4-dihydro-2H-benzo[h]chromen-6-ol]",≤ 5
18,"CC(=O)N(C)CC1(C)CCc2c(C)c(O)c(C)c(C)c2O1 (stereo not shown) [N-(6-Hydroxy-2,5,7,8-tetramethyl-chroman-2-ylmethyl)-N-methyl-acetamide]",≤ 5
19,"Cc1c(C)c2c(c(C)c1O)C=CC(C)(C)O2 [2,2,5,7,8-Pentamethyl-2H-chromen-6-ol]",≤ 5
20,"Cc1c(O)cc2c(c1C)OC(C)(CCCl)CC2 (stereo not shown) [2-(2-chloro-ethyl)-2,7,8-trimethyl-chroman-6-ol]",≤ 5
21,"Cc1cc(O)c(C)c2c1OC(C)(C)CC2 [2,2,5,8-Tetramethyl-chroman-6-ol]",≤ 5
22,"Cc1c(C)c2c(c(CN3CCN(Cc4ccccc4)CC3)c1O)CCC(C)(CCCC(C)CCCC(C)CCCC(C)C)O2 (stereo not shown) [5-(4-Benzyl-piperazin-1-ylmethyl)-2,7,8-trimethyl-2-(4,8,12-trimethyl-tridecyl)-chroman-6-ol]",≤ 5
23,"Cc1c(C)c2c(c(C(C)O)c1O)CCC(C)(C)O2 (stereo not shown) [5-(1-Hydroxy-ethyl)-2,2,7,8-tetramethyl-chroman-6-ol]",≤ 5
24,"Cc1c(O)cc2c(c1C)OC(C)(CCCCl)CC2 (stereo not shown) [2-(3-Chloro-propyl)-2,7,8-trimethyl-chroman-6-ol]",≤ 5
